Results on seven compounds are retold here after paper PMC4568483, “A spheroid toxicity assay using magnetic 3D bioprinting and real-time mobile device-based imaging” (Scientific Reports, 2015).

Like-named read-outs stand apart in the source and are kept apart here. A value given as a limit tells only on which side of the number the result lay.

For series [1], the system named is 3T3s in 2D. Kind of series: MTT assay on 2D monolayers, viability after 72 h. The note with it: for MTT IC50 / IC50: 2D, viability at 72 h; for Effect on viability in 2D: MTT. Type of series: cell-based, murine. As for the experimental part: The MTT assay was performed to compare its endpoint, viability of 3T3s in 2D after 72 h, with spheroid contraction. 3T3s were seeded on 96-well plates (n = 3 per compound concentration) at a concentration of 2.5 × 10^4 cells/well to adhere overnight. The following day, compounds were added to each well at the desired concentration. After 72 hours of incubation, the media was replaced with 10% MTT (Sigma-Aldrich) in media. The cells were incubated with the reagent for at least 4 hours at 37 °C. Following incubation, the media was aspirated and the remaining formazan was dissolved in acidified isopropanol (0.1 N HCl). The absorbance of the solution was then read at 570 nm in a spectrophotometer (SpectraMax Plus 384, Molecular Devices, Sunnyvale, CA) with background subtraction at 690 nm. Dose-response curves were plotted and fit to a Boltzmann sigmoidal function (OriginPro) similarly to the spheroid toxicity assay.

Series [2] concerns 3T3 spheroids. Kind of series: Spheroid toxicity assay (contraction of magnetically 3D bioprinted spheroids, mobile device imaging). Type of series: cell-based, murine. The protocol: The spheroid toxicity assay was designed to rapidly assess toxicity in M3DB spheroids (Fig. 1A)[26]. At 70–80% confluence, 3T3s grown in 2D were statically incubated overnight with magnetic nanoparticles, allowing for nanoparticle association with the cells (NanoShuttle, Nano3D Biosciences, Houston, TX) at a concentration of 1 μL/1 × 10^4 cells (50 pg/cell)[18][25]. Cells were magnetized by the electrostatic and non-specific attachment of nanoparticles to the cell membrane via poly-L-lysine. Once attached onto the membrane, the nanoparticles remain for 7–8 d before releasing into the ECM[18]. If internalized, the nanoparticles will exit the cell still attached to the membrane.
After magnetization, the cells were enzymatically detached with trypsin, resuspended in media, then distributed into ultra-low attachment 6-well plates (Corning, Tewksbury, MA) at a concentration of 3.2 × 10^6 cells in 2 mL (1.6 × 10^6 cells/mL). A magnetic drive of 6 neodymium magnets (Nano3D Biosciences) was placed atop the well plate to levitate the cells in 3D (500 G, 30 pN, see Supplemental Fig. S12). The purpose of this levitation step was to induce ECM formation, as was shown previously with primary human pulmonary fibroblasts and tracheal smooth muscle cells that extruded laminin after 1 h of levitation. […] After 1 h of levitation, the levitated cultures were broken up and resuspended in media using pipette action to yield a suspension of magnetized cells and ECM, which was distributed into an ultra-low attachment 96-well plate (Corning) at a concentration of 7.5 × 10^4 cells/well (n = 3 per compound concentration). Immediately afterwards, the plate was placed atop a magnetic drive of 96 neodymium magnets (0.0625” OD, Nano3D Biosciences) to attract the cells (120 G, 10 pN, see Supplemental Fig. S12) and ECM to the bottom of the well to form a spheroid. These spheroids were printed on the magnets for 15 min. At this point, the cells within the spheroids were connected but loose, and their competency could be empirically assessed by their ability to stay together when the magnet was removed. Towards the end of the printing time, compounds were added to the wells achieve their final concentrations. The plate was then removed from the magnet and the spheroids were allowed to contract.
M3DB spheroids and their contraction were imaged using a mobile device-based imaging system (Fig. 1B)[26]. After printing, the plate of spheroids were placed atop an acrylic imaging apparatus with a mobile device (iPod touch 5th generation, 16 GB, Apple Computer, Cupertino, CA) below the plate facing upwards, and a light source (LightPad A920, Artograph, Delano, MN) above the plate to illuminate the images. The mobile device was programmed using an application (Experimental Assistant, Nano3D Biosciences) to image the plate every 4 min for a period of 10 h. When the spheroids had finished contracting, the images were transferred to a computer where they were analyzed using a custom image analysis code written in Python that processed thousands of images in hours. The area of the spheroid was measured over time, as well as the rate of contraction for the first 150 min using a linear least-squares fit (OriginPro, OriginLab, Northampton, MA). The rates of contraction served as the endpoint for the assay, and were plotted against compound concentration and fit to a Boltzmann sigmoidal function (OriginPro) from which the IC50’s were determined.

The subject of series [3] is 3T3s. Conditions: 2D, read-out: Literature IC50, cited from earlier work.
For series [4], the system named is 3T3 spheroids. Kind of series: MTT assay on 3T3 spheroids. Type of series: cell-based, murine. The note with it: 3D spheroids. An excerpt:
Figure S7: Dose response curves of 3T3 spheroids exposed to ATRA, SDS, and penicillin-G as measured by the MTT assay.

Series [5] has as its system 3T3 spheroids. Put plainly: Gene expression profiling (mRNA sequencing) of spheroids with and without ATRA. The note with it: 41.6 μM ATRA.
Where [6] appears, read: 3D, endpoint rate of contraction over 150 min.
Where [7] appears, read: ref NIEHS Registry of Cytotoxicity [35].
Setting [8] is: Mus musculus, 2.5 h, 3D, endpoint rate of contraction over 150 min.

Take `O=c1[nH]cc(F)c(=O)[nH]1` [5′-fluorouracil]: the “MTT IC50” value in series [1] is “n.s”. For the same compound, the “Effect on viability in 2D” value in series [1] (72 h) is “no significant effect”. Further, the IC50 in series [2] (setting [6]) is 253 µM; in series [3] (setting [7]), 2.6 µM.

As to `CC1=C(/C=C/C(C)=C/C=C/C(C)=C/C(=O)O)C(C)(C)CCC1` [ATRA, all-trans retinoic acid], the “Dose response of spheroid viability by MTT” value (“Dose response” for short) in series [4] is “significant dose-dependent response”. Moreover, the “Fate of 3T3s in 2D on exposure” value in series [1] (2D culture, 41.6 μM ATRA, 72 h) was “lysed before 72 h”. The IC50 in series [1] (Mus musculus) was 24.7 µM; in series [2] (setting [8]) it was 82.8 µM; in series [3] (ref Seiler et al., 2011 [16]), 20 µM. In series [5], the “Expression of genes for apoptotic inhibitors (BCL2, BIRC2, BIRC3)” value is listed as “downregulation”. Besides, the “Expression of the gene for p53” value in series [5] is “upregulation”. For the same compound, in series [5], the “Number of genes downregulated as a function of exposure” value was 40 genes. Further, the “Number of genes expressed differently between exposed and unexposed spheroids” value in series [5] (72 h exposure, 364 genes profiled) stood at 99 genes. Further, the “Concentration at and above which spheroid contraction was affected” value in series [2] was ≥ 41.6 µM.

For the compound `C[C@@H]1C[C@H]2[C@@H]3CCC4=CC(=O)C=C[C@]4(C)[C@@]3(F)[C@@H](O)C[C@]2(C)[C@@]1(O)C(=O)CO` [Dexamethasone, dexamethasone], in series [1], the “MTT IC50” value is “n.s”. Further, the “Effect on viability in 2D” value in series [1] (72 h) is listed as “no significant effect”. The IC50 in series [2] (setting [8]) was 84.6 µM; in series [3] (ref Nakada et al., 1987 [45]), 0.00277 µM.

`COc1cccc2c1C(=O)c1c(O)c3c(c(O)c1C2=O)C[C@@](O)(C(=O)CO)C[C@@H]3O[C@H]1C[C@H](N)[C@H](O)[C@H](C)O1` [Doxorubicin, doxorubicin]: the 50% inhibitory concentration (IC50) in series [1] (Mus musculus) was 12.7 µM; in series [2] (setting [8]), 46.7 µM; in series [3] (setting [7]), 0.33 µM.

Turning to `C=C[C@@]1(C)CC(=O)[C@]2(O)[C@@]3(C)[C@@H](O)CCC(C)(C)[C@@H]3[C@H](O)[C@H](OC(C)=O)[C@@]2(C)O1` [Forskolin, forskolin], the IC50 in series [1] (Mus musculus) is 0.6 µM; in series [2] (setting [8]), 4.7 µM; in series [3] (ref Varrault et al., 1992 [46]), 26 µM.

As for `CC1(C)S[C@@H]2[C@H](NC(=O)Cc3ccccc3)C(=O)N2[C@H]1C(=O)O` [Penicillin-G, penicillin-G], in series [4], the “Dose response” value is reported as “significant dose-dependent response”. For the same compound, the IC50 was 1770 µM in series [1] (Mus musculus) and 5730 µM in series [3] (setting [7]). For the same compound, the “Spheroid Assay IC50” value in series [2] (setting [6]) is “n.s”. The “Effect on spheroid contraction” value in series [2] (rate of contraction over first 150 min) was “no effect on spheroid contraction”.

Regarding `CCCCCCCCCCCCOS(=O)(=O)[O-].[Na+]` [SDS, sodium dodecyl sulfate], the “Dose response” value in series [4] is “significant dose-dependent response”. Also, the 50% inhibitory concentration (IC50) in series [1] was 167 µM; in series [2] (setting [6]), 282 µM; in series [3] (setting [7]), 270 µM.
